In US20240252674A1, “AGENTS FOR DIRECTED CONJUGATION TECHNIQUES AND CONJUGATED PRODUCTS” (Biohaven Therapeutics Ltd., priority 2021, published 2024) one finds Kd data, which are given here for four molecules.

Where two headings read alike, the source gives them in different places. Where no end group is shown, it is not given here.

One assay deals with IgG. Description: Binding of peptide IgG binder (directing group) to IgG. The note with it: Kd of the directing group included in the peptide IgG binder.
The target in assay [1] is Immunoglobulin G.
The target in assay [2] is Immunoglobulin G. The source holds these as a separate data set.

Regarding “DCAWXLGELVWCT peptide [cyclic peptide IgG binder]”, the affinity at IgG, expressed as Kd, was 15 nM. On the same count and under the same terms, next, “GSYWYDVWF peptide [linear peptide IgG binder]”: 600 nM.

Consider “cyclic peptide IgG binder (DCAWXLGELVWCT peptide)”, for which the Kd (as a rule, the concentration at which binding is half-saturated) in the assay with Immunoglobulin G [1] stood at 15 nM.

B1: linear peptide IgG binder (… peptide) (peptide)
peptide: GSYWYDVWF
modifications: not fully specified
With B1, in the assay with Immunoglobulin G [2], the Kd stood at 600 nM.
